# Measured values taken from US8927459B2, “Vegetation treatment” (Arctic, Inc., priority 2008, dated 2015).
# Key:
# large crabgrass = assay: greenhouse-grown crabgrass treated with non-insulated CO2 prototype, visual percent control; assay type: in vivo; conditions: for % control: 2 lbs CO2; for percent control: 2-3 tiller greenhouse-grown, seven days after treatment (FIG. 2)
# Procedure: (§1) Greenhouse-grown crabgrass plants were treated with the prototype containing either an 8002 flat fan nozzle (which was measured to release 2 pounds of CO2 per minute) or with an 8004 flat fan nozzle (which releases 4 pounds of CO2 per minute), to determine if the rate of application affects the percent control achieved. Control means killing or death of the plants as determined by visual observation. The percent control is a visual rating of the treated plant compared to an untreated control plant. In other words, it is the percent of plant death. Trials were conducted in triplicate.
# Similarly, treatment for 15 seconds with the 2 lb/min nozzle results in 17 percent control with 0.5 pounds of CO2 dispensed, while treatment with the 4 lb/min nozzle for 5 seconds results in 12 percent control with 0.3 pounds of CO2 dispensed. From this study, it was concluded that for crabgrass, the total amount (dose) of CO2 applied correlates with % control. See FIG. 4, which graphs % control vs. CO2 dose with two different application rates.
# In the data presented in FIG. 3, the crabgrass plants are larger. They are at the 3-4 tiller stage, whereas the plants in the data presented in FIG. 2 were 2-3 tiller plants. The CO2 application controlled both plant sizes well, and with the larger plants the same trend of percent control corresponding to the total pounds of CO2 applied was observed. In both cases the LD50 is over 1 pound CO2/plant.
# (§2) Most commercial herbicides achieve 80% control or better. The prototype used 2 pounds of CO2 to achieve this level of control for one 6″ plant. At the 2 lb/plant dispensing rate, a commercial 25-lb cylinder of CO2 would only treat 10 plants; clearly efficiency increases were needed to create a viable backpack sprayer system. An insulating cone was attached around the nozzle with the expectation of possibly achieving a modest increase in efficiency, perhaps cutting the CO2 requirement by 20-50%.
# crabgrass = assay: field-grown crabgrass treated with CO2 prototype with insulating cone, percent control; assay type: in vivo; conditions: for % control: insulated prototype, 0.15 lbs CO2
# Procedure: as §1, §2
# Unexpectedly, a greater than ten-fold reduction in the CO2 usage was achieved (Table 1). The results are especially remarkable since field-grown plants (treated with the insulated design) are usually harder to kill than greenhouse-grown plants that were treated with the non-insulated design.
compound,measurement,setting,value
"O=C=O [CO2, carbon dioxide]",% control,"large crabgrass; 2-3 tiller greenhouse, non-insulated prototype",75%
same,LD50,"large crabgrass; 2-3 tiller plants, non-insulated prototype",over 1 pound CO2/plant
same,percent control,"large crabgrass; 2 lb/min nozzle, 15 seconds, 0.5 pounds of CO2 dispensed",17%
same,percent control,"large crabgrass; 2 lb/min nozzle, 30 seconds, one pound of CO2 dispensed",40%
same,% control,"large crabgrass; 3-4 tiller greenhouse, non-insulated prototype",87%
same,LD50,"large crabgrass; 3-4 tiller plants, non-insulated prototype",over 1 pound CO2/plant
same,percent control,"large crabgrass; 4 lb/min nozzle, 5 seconds, 0.3 pounds of CO2 dispensed",12%
same,percent control,"large crabgrass; 4 lb/min nozzle, 15 seconds, one pound of CO2 dispensed",42%
same,amount of CO2 used to achieve 80% control or better,"large crabgrass; non-insulated prototype, one 6″ plant",2 pounds
same,LD50 (lethal dose to 50% of plants),large crabgrass; without insulated cone,2 pounds of CO2 per plant
same,% control,crabgrass; 2-3 tiller field,80+ %
same,% control,"crabgrass; 2-3 tiller field, listed as carbon dioxide",≥ 80%
same,% control,crabgrass; 3-4 tiller field,80+ %
same,% control,"crabgrass; 3-4 tiller field, listed as carbon dioxide",≥ 80%
same,LD50 (lethal dose to 50% of plants),crabgrass; with insulated cone,less than 0.2 lbs/CO2 per plant
